For orientation: LD50 means the dose at which mortality reaches 50%. A low value points to a more toxic substance.

These results are taken from patent US4925652A, “Nitroxyl compounds, and diagnostic media based thereon useful for enhancing NmR imaging” (Schering Aktiengesellschaft, priority 1983, dated 1990).

A short description of this data set: Acute toxicity (LD50) in mice after intravenous injection into the tail vein, survival after 7 days. The settings on record: in vivo, mouse, i.v. tail vein, pH 7-7.5, survival after 7 days. The procedure:
Mice weighing 18-22 g were given varying quantities of the compound as a […] aqueous solution per kg, adjusted to pH 7-7.5 by intravenous injection into the tail vein. After 7 days, the survival rate of the mice was determined and, from this value, the LD50 in mmol/kg of animal was calculated in the usual way.
(J. Comput. Assist. Tomogr. 7, 1983, 184.)

On to `CC1(C)CC(C(=O)NC(CO)C(O)CO)C(C)(C)N1[O]` (centres unmarked) [Compound 5, 2,2,5,5-Tetramethylpyrrolidine-1-oxyl-3-carboxylic Acid (1,3,4-Trihydroxybut-2-yl)amide], for which the LD50 at 168 h is 25000 µmol/kg. With `CC1(C)C=C(C(=O)NC(CO)C(O)CO)C(C)(C)N1[O]` (centres unmarked) [Compound 3, 2,2,5,5-Tetramethyl-3-pyrroline-1-oxyl-3-carboxylic Acid (1,3,4-Trihydroxybut-2-yl)amide], the 50% lethal dose (LD50) at 168 h is 20000 µmol/kg. `CC1(C)CC(NC(=O)CCC(=O)O)CC(C)(C)N1[O]` [Compound 1, Succinic Acid (2,2,6,6-tetramethyl-1-oxylpiperidin-4-yl)-amide, reference compound] had a 50% lethal dose (LD50) at 168 h of 10000 µmol/kg.

`CC1(C)C=C(C(=O)NCC(O)CO)C(C)(C)N1[O]` (centres unmarked) [Compound 4, 2,2,5,5-Tetramethyl-3-pyrroline-1-oxyl-3-carboxylic Acid (2,3-Dihydroxypropyl)amide] showed an LD50 at 168 h of 15000 µmol/kg. `CC1(C)CC(C(=O)O)C(C)(C)N1[O]` (centres unmarked) [Compound 2, 2,2,5,5-Tetramethylpyrrolidine-1-oxyl-3-carboxylic Acid, reference compound] gave an LD50 at 168 h of 10000 µmol/kg.
